We go through 26 compounds from patent publication US7435837B2, “Dihydrobenzofuranyl alkanamine derivatives and methods for using same” (Wyeth, priority 2003, dated 2008).

Experiment [1] concerns the target T1, human 5-hydroxytryptamine-2C (h5-HT2C) receptor (Homo sapiens, UniProt P28335).
T1 construct: expressed in transfected cells; host or cells: CHO (Chinese Hamster Ovary) cells; membranes
T1 sequence (P28335 33-458): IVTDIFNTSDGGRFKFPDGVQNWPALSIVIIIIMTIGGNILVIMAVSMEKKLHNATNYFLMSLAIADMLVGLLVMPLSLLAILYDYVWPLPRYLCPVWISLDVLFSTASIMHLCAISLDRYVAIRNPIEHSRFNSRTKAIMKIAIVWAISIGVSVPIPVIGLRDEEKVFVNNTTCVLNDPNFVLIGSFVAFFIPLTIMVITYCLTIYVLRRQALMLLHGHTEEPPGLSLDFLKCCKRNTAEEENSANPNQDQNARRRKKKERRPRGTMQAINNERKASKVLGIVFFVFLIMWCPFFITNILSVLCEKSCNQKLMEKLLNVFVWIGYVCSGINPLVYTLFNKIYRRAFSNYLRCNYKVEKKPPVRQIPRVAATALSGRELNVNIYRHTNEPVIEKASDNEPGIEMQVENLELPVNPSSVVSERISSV
Nature of the experiment: [125I]DOI binding to membranes of CHO cells expressing the human 5-HT2C receptor. Conditions: [125I]DOI radioligand, CHO cell membranes, room temperature 60 min; read-out: 5-HT2C Affinity Ki.

In the next experiment the target is T2, human 5-HT2C receptor (Homo sapiens, UniProt P28335).
T2 sequence (P28335 33-458): T1 sequence (P28335 33-458)
Kind of experiment: 5-HT2C receptor-stimulated calcium mobilization (FLIPR) in CHO cells.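 For all read-outs here: Fluo-3-AM fluorescence read on FLIPR every 1 s, agonist added after 10 baseline reads, response taken as peak minus lowest raw fluorescence count.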 Format: cell-based. Conditions: for EC50: calcium mobilization, CHO cells stably expressing human 5-HT2C, read-out: 5-HT2C Function EC50; for 5-HT2C Function Emax (%) / Emax: percentage of the response observed with a maximally effective concentration of 5-HT; for Emax: CHO, read-out: 5-HT2C Function Emax (%).

In general, Ki refers to the dissociation constant of the complex between target and ligand, obtained from inhibition or displacement. The term EC50 denotes the concentration that produces a half-maximal response. Consider `COc1ccc(-c2cccc3c2OC(CN)C3)cc1` (single isomer, unassigned; (-)) [Example 81, (−)-1-[7-(4-methoxyphenyl)-2,3-dihydro-1-benzofuran-2-yl]methanamine], for which, in experiment [1], the Ki came out at 24 nM. At human 5-HT2C receptor, the EC50 was 294 nM and the “5-HT2C Function Emax (%)” value is given as 50%.

With `NCC1Cc2cc(Cl)cc(-c3ccccc3)c2O1` (single isomer, unassigned; (-)) [Example 86, (−)-1-(5-chloro-7-phenyl-2,3-dihydro-1-benzofuran-2-yl)methanamine], in experiment [1], the Ki was found to be 75 nM. Also, on human 5-HT2C receptor, the EC50 turned out to be 963 nM and the “5-HT2C Function Emax (%)” value is 90%.

A word on the Emax: it is the greatest response seen or fitted, relative to the assay's reference. For the compound `NCC1Cc2cc(Cl)cc(-c3ccsc3)c2O1` (single isomer, unassigned; (-)) [Example 91, (−)-(5-chloro-7-thien-3-yl-2,3-dihydro-1-benzofuran-2-yl)methylamine], the Ki in experiment [1] turned out to be 5 nM. At human 5-HT2C receptor, the Emax worked out at 100% and the EC50 is 45 nM.

With `Cc1ccccc1-c1cc(Cl)cc2c1OC(CN)C2` (single isomer, unassigned; (-)) [Example 97, (−)-1-[5-chloro-7-(2-methylphenyl)-2,3-dihydro-1-benzofuran-2-yl]methanamine], in experiment [1], the Ki came to 4 nM. Moreover, on human 5-HT2C receptor, the EC50 was 577 nM and the “5-HT2C Function Emax (%)” value is recorded as 60%.

With `NCC1Cc2cc(F)cc(-c3ccccc3Cl)c2O1` (single isomer, unassigned; (-)) [Example 102, (−)-1-[7-(2-chlorophenyl)-5-fluoro-2,3-dihydro-1-benzofuran-2-yl]methanamine], the Ki in experiment [1] worked out at 8 nM. Besides, at human 5-HT2C receptor, the EC50 came out at 32 nM and the “5-HT2C Function Emax (%)” value is listed as 65%.

In the case of `Cc1ccccc1-c1cc(F)cc2c1OC(CN)C2` (single isomer, unassigned; (-)) [Example 106, (−)-1-[5-fluoro-7-(2-methylphenyl)-2,3-dihydro-1-benzofuran-2-yl]methanamine], the Ki in experiment [1] is 16 nM. In addition, on human 5-HT2C receptor, the EC50 came to 91 nM and the “5-HT2C Function Emax (%)” value stood at 50%.

Regarding `NCC1Cc2cccc(-c3ccccc3Cl)c2O1` (single isomer, unassigned; (-)) [Example 129, (−)-1-[7-(2-chlorophenyl)-2,3-dihydro-1-benzofuran-2-yl]methanamine], the Ki in experiment [1] was found to be 0.3 nM. Also, at human 5-HT2C receptor, the Emax worked out at 100% and the EC50 is 0.2 nM.

Regarding `NCC1Cc2cccc(-c3cccc(F)c3)c2O1` (single isomer, unassigned; (-)) [Example 132, (−)-1-[7-(3-fluorophenyl)-2,3-dihydro-1-benzofuran-2-yl]methanamine], the inhibition constant (Ki) in experiment [1] worked out at 20 nM. For the same compound, on human 5-HT2C receptor, the EC50 was found to be 1480 nM and the “5-HT2C Function Emax (%)” value is 50%.

For `NCC1Cc2cccc(-c3ccc(C(F)(F)F)cc3)c2O1` (single isomer, unassigned; (-)) [Example 138, (−)-1-{7-[4-(trifluoromethyl)phenyl]-2,3-dihydro-1-benzofuran-2-yl}methanamine], in experiment [1], the inhibitory constant (Ki) worked out at 7.4 nM. Moreover, on human 5-HT2C receptor, the EC50 was found to be 3800 nM and the “5-HT2C Function Emax (%)” value stood at 60%.

For the compound `NCC1Cc2cccc(-c3c(Cl)cccc3Cl)c2O1` (single isomer, unassigned; (-)) [Example 141, (−)-1-[7-(2,6-dichlorophenyl)-2,3-dihydro-1-benzofuran-2-yl]methanamine], the Ki in experiment [1] worked out at 0.07 nM. Further, on human 5-HT2C receptor, the Emax came out at 90% and the EC50 stood at 0.03 nM.

With `COc1ccc(-c2cccc3c2OC(CN)C3)c(OC)c1` (single isomer, unassigned; (-)) [Example 144, (−)-1-[7-(2,4-dimethoxyphenyl)-2,3-dihydro-1-benzofuran-2-yl]methanamine], the Ki in experiment [1] worked out at 6.1 nM. For the same compound, on human 5-HT2C receptor, the Emax was 90% and the EC50 is 4 nM.

As for `NCC1Cc2cccc(-c3ccc(F)cc3F)c2O1` (single isomer, unassigned; (-)) [Example 148, (−)-1-[7-(2,4-difluorophenyl)-2,3-dihydro-1-benzofuran-2-yl]methanamine], the Ki in experiment [1] stood at 12 nM. Moreover, on human 5-HT2C receptor, the EC50 was 290 nM and the “5-HT2C Function Emax (%)” value worked out at 70%.

Take `NCC1Cc2cccc(-c3ccc(Cl)cc3Cl)c2O1` (single isomer, unassigned; (-)) [Example 149, (−)-1-[7-(2,4-dichlorophenyl)-2,3-dihydro-1-benzofuran-2-yl]methanamine]: the Ki in experiment [1] is 0.15 nM. Further, on human 5-HT2C receptor, the Emax is 100% and the 50% effective concentration (EC50) worked out at 0.97 nM.

For `NCC1Cc2cc(F)cc(-c3ccccc3C(F)(F)F)c2O1` (single isomer, unassigned; (-)) [Example 151, (−)-1-{5-fluoro-7-[2-(trifluoromethyl)phenyl]-2,3-dihydro-1-benzofuran-2-yl}methanamine], in experiment [1], the Ki turned out to be 1.1 nM. Moreover, at human 5-HT2C receptor, the EC50 came to 27 nM and the “5-HT2C Function Emax (%)” value is 100%.

For the compound `COc1cccc(-c2cccc3c2OC(CN)C3)c1OC` (single isomer, unassigned; (-)) [Example 156], in experiment [1], the Ki was found to be 4.7 nM. For the same compound, at human 5-HT2C receptor, the Emax came to 90% and the EC50 came to 6 nM.

`Cc1cc(Cl)ccc1-c1cccc2c1OC(CN)C2` (single isomer, unassigned; (-)) [Example 159, (−)-{[7-(4-chloro-2-methylphenyl)-2,3-dihydro-1-benzofuran-2-yl]methyl}amine]: the Ki in experiment [1] was 12 nM. Also, at human 5-HT2C receptor, the EC50 turned out to be 636 nM and the “5-HT2C Function Emax (%)” value is on record as 80%.

For the compound `NCC1Cc2cccc(-c3cc(Cl)ccc3Cl)c2O1` (single isomer, unassigned; (-)) [Example 165, (−)-{[7-(2,5-dichlorophenyl)-2,3-dihydro-1-benzofuran-2-yl]methyl}amine], in experiment [1], the Ki was 18 nM. At human 5-HT2C receptor, the EC50 turned out to be 80 nM and the “5-HT2C Function Emax (%)” value came to 70%.

In the case of `NCC1Cc2cc(F)cc(-c3cccnc3)c2O1` (single isomer, unassigned; (-)) [Example 207, (−)-[(5-fluoro-7-pyridin-3-yl-2,3-dihydro-1-benzofuran-2-yl)methyl]amine], the Ki in experiment [1] came to 128 nM. For the same compound, at human 5-HT2C receptor, the Emax stood at 80% and the EC50 worked out at 112 nM.

In the case of `Cc1cccc(C)c1-c1cc(F)cc2c1OC(CN)C2` (single isomer, unassigned; (-)) [Example 229, (−)-{[7-(2,6-dimethylphenyl)-5-fluoro-2,3-dihydro-1-benzofuran-2-yl]methyl}amine], the Ki in experiment [1] was found to be 0.4 nM. For the same compound, at human 5-HT2C receptor, the EC50 was found to be 6 nM and the “5-HT2C Function Emax (%)” value is listed as 100%.

For `NCC1Cc2cc(Cl)cc(-c3cccc(F)c3F)c2O1` (single isomer, unassigned; (-)) [Example 245, (−)-{[5-chloro-7-(2,3-difluorophenyl)-2,3-dihydro-1-benzofuran-2-yl]methyl}amine], in experiment [1], the Ki was found to be 2 nM. Also, at human 5-HT2C receptor, the Emax was 100% and the EC50 was 57 nM.

On to `NCC1Cc2cc(Cl)cc(-c3ccc(Cl)cc3Cl)c2O1` (single isomer, unassigned; (-)) [Example 252, (−)-{[5-chloro-7-(2,4-dichlorophenyl)-2,3-dihydro-1-benzofuran-2-yl]methyl}amine], for which, in experiment [1], the Ki amounted to 1.1 nM. In addition, at human 5-HT2C receptor, the Emax amounted to 100% and the EC50 was found to be 3 nM.

Consider `Cc1cccc(C)c1-c1cc(Cl)cc2c1OC(CN)C2` (single isomer, unassigned; (-)) [Example 261, (−)-{[5-chloro-7-(2,6-dimethylphenyl)-2,3-dihydro-1-benzofuran-2-yl]methyl}amine], for which the Ki in experiment [1] is 0.5 nM. For the same compound, at human 5-HT2C receptor, the Emax turned out to be 90% and the EC50 is 67 nM.

On to `Cc1cc2c(c(-c3ccc(Cl)cc3Cl)c1)OC(CN)C2` (single isomer, unassigned; (-)) [Example 298, (−)-{[7-(2,4-dichlorophenyl)-5-methyl-2,3-dihydro-1-benzofuran-2-yl]methyl}amine], for which, in experiment [1], the Ki amounted to 11 nM. Further, on human 5-HT2C receptor, the Emax stood at 90% and the EC50 worked out at 30 nM.

`CNCC1Cc2cccc(-c3ccccc3C)c2O1` (single isomer, unassigned; (-)) [Example 407, (−)-N-methyl-1-[7-(2-methylphenyl)-2,3-dihydro-1-benzofuran-2-yl]methanamine]: in experiment [1], the Ki worked out at 8.5 nM. At human 5-HT2C receptor, the EC50 is 149 nM and the “5-HT2C Function Emax (%)” value is given as 60%.

For `CNCC1Cc2cccc(-c3ccccc3Cl)c2O1` (single isomer, unassigned; (-)) [Example 411, (−)-N-methyl-1-[7-(2-chlorophenyl)-2,3-dihydro-1-benzofuran-2-yl]methanamine], in experiment [1], the Ki worked out at 2.6 nM. On human 5-HT2C receptor, the EC50 is 57 nM and the “5-HT2C Function Emax (%)” value is reported as 80%.

Consider `CNCC1Cc2cccc(-c3c(Cl)cccc3Cl)c2O1` (single isomer, unassigned; (-)) [Example 434, (−)-{[7-(2,6-dichlorophenyl)-2,3-dihydro-1-benzofuran-2-yl]methyl}methylamine], for which, in experiment [1], the Ki came to 0.03 nM. At human 5-HT2C receptor, the Emax came to 90% and the EC50 worked out at 7 nM.
